Data from PubChem BioAssay (NCI).
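96-well plates; 48 h exposure; 5 concentrations. Endpoints by linear interpolation between flanking doses. Not reached: highest tested concentration assigned. The concentration for 50% growth inhibition is given as GI50. TGI marks complete inhibition of growth.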

Assays:
Assay in all cases: inhibition of tumour cell growth, NCI panel, 48 h
MALME-3M melanoma = system: MALME-3M melanoma
SK-MEL-28 melanoma = system: SK-MEL-28 melanoma
SNB-75 CNS = system: SNB-75 CNS
OVCAR-3 ovarian = system: OVCAR-3 ovarian
NCI-H23 lung = system: NCI-H23 lung
MDA-MB-435 = system: MDA-MB-435
BT-549 breast = system: BT-549 breast
DU-145 prostate = system: DU-145 prostate
786-0 renal = system: 786-0 renal
HL-60(TB) leukemia = system: HL-60(TB) leukemia

Compound	TGI (MALME-3M melanoma) [µM]	TGI (SK-MEL-28 melanoma) [µM]	TGI (SNB-75 CNS) [µM]	TGI (OVCAR-3 ovarian) [µM]	TGI (NCI-H23 lung) [µM]	TGI (MDA-MB-435) [µM]	TGI (BT-549 breast) [µM]	TGI (DU-145 prostate) [µM]	TGI (786-0 renal) [µM]	TGI (HL-60(TB) leukemia) [µM]	GI50 (MALME-3M melanoma) [µM]	GI50 (SK-MEL-28 melanoma) [µM]	GI50 (SNB-75 CNS) [µM]	GI50 (NCI-H23 lung) [µM]	GI50 (BT-549 breast) [µM]	GI50 (DU-145 prostate) [µM]
NC(CC1=CS(=O)(=O)c2ccc(Cl)cc21)C(=O)O (stereo not drawn)	> 100	> 100	> 100	> 100	> 100	> 100	> 100	> 100	> 100	–	–	–	–	–	–	–
COc1c(O)c2c3c(c(C)cc(O)c3c1O)C(=O)C(O)(C(C)(C)C(C)=O)C2=O (stereo not drawn)	> 100	> 100	> 100	> 100	> 100	–	–	–	> 100	> 100	–	–	–	–	–	–
Nc1nc(N)c(N=O)c(Nc2ccc(Br)cc2)n1	44.6	68.6	40.3	79.3	> 100	–	–	–	> 100	> 100	–	–	–	–	–	–
COc1ccc(-c2c3c([nH]c(=S)c2C#N)CC(C)(C)CC3=O)cc1	> 100	> 100	–	> 100	> 100	–	> 100	> 100	> 100	> 100	–	–	–	–	–	–
O=C(Cc1ccccc1)NN1C(=O)/C(=C\c2ccccc2)SC1=Nc1ccccc1	–	> 100	> 100	> 100	> 100	> 100	> 100	> 100	> 100	–	–	–	–	–	–	–
N/C(=N\S(=O)(=O)c1c(C(F)(F)F)cccc1C(F)(F)F)Nc1ccc(Cl)cc1	58.4	> 100	> 100	> 100	30.8	–	96	> 100	74.7	51.9	–	–	–	–	–	–
CCOC(=O)C1(C(=O)OCC)COS(=O)OC1	–	95.7	> 100	42.1	> 100	> 100	–	> 100	–	–	–	–	–	–	–	–
O=C(O)c1cc(-c2ccc3c(O)c(O)ccc3c2)ccc1O	> 75	> 75	> 75	> 75	> 75	> 75	–	> 75	> 75	53.5	–	–	–	–	–	–
O=C(Nc1ccccc1F)c1cc2ccc(O)cc2oc1=Nc1ccccc1F	3.44	5.8	–	3.83	4.52	4.24	6.95	3.75	3.34	4.54	–	–	–	–	–	–
CC1CN=C(N(C(=O)Nc2ccc(F)c(Cl)c2)c2ccccc2)S1 (stereo not drawn)	78.5	33.5	63.7	> 100	52	–	–	> 100	56	–	–	–	–	–	–	–
O=c1ccn(C2OC(CO)C(P(=O)(O)O)C2O)c(=O)[nH]1 (stereo not drawn)	> 100	> 100	> 100	> 100	> 100	–	> 100	> 100	> 100	> 100	–	–	–	–	–	–
N=C(N)c1ccc(-c2ccc(-c3cccs3)s2)cc1	3.23	3.07	3.17	–	4.86	–	14.5	3.14	–	–	1.69	1.63	1.69	1.98	3.77	1.68
CC(C(=O)N1C(=O)N(C(=O)C(C)C(O)c2ccccc2)C2CCCCC21)C(O)c1ccccc1 (stereo not drawn)	> 100	> 100	–	> 100	> 100	–	–	–	> 100	70	–	–	–	–	–	–
CC1=NN(C(=O)CC(=O)Nc2ccccc2F)C(=O)C1N=Nc1ccccc1[N+](=O)[O-] (stereo not drawn)	> 100	> 100	> 100	> 100	> 100	–	–	–	> 100	–	–	–	–	–	–	–
C=C1c2cc3c(cc2CC12Cc1cc4c(cc1C2=O)CCC4)CCC3 (stereo not drawn)	> 100	> 100	> 100	> 100	> 100	> 100	–	> 100	> 100	> 100	–	–	–	–	–	–
O=C(CN(c1ccccc1)c1ccccc1)N1c2ccccc2C2C=CC=CC21 (stereo not drawn)	47.1	> 56	52.3	44.6	53.5	–	–	–	56.3	25.7	–	–	–	–	–	–
Cc1cc(-c2nc3ccccc3s2)ccc1NC(=O)[C@@H](N)CCCCN	34.8	31.3	13	26.3	17.5	10	24.1	25.2	13.2	–	–	–	–	–	–	–
CCC1=CC2CN3Cn4c(c(COCc5c6n(c7ccccc57)CN5CC7C=C(CC)C5C6(C(=O)OC)C7)c5ccccc54)C(C(=O)OC)(C2)C13	> 100	> 100	–	> 100	> 100	–	–	–	> 100	> 100	–	–	–	–	–	–
C[C@@H](Cl)[C@H]1CCCN(Cc2ccc(Br)cc2)C1	> 12.5	> 12.5	> 12.5	> 12.5	> 12.5	> 12.5	–	> 12.5	> 12.5	> 12.5	–	–	–	–	–	–
CN(Cc1ccccc1)c1cc(=O)n(C)c(=O)[nH]1	> 100	> 100	–	> 100	> 100	> 100	> 100	> 100	> 100	> 100	–	–	–	–	–	–
O=[N+]([O-])c1ccc(/C=C/c2cc(-c3ccccc3)nc3ccc4ccccc4c23)cc1	> 100	> 100	> 100	> 100	> 100	> 100	–	> 100	> 100	> 100	–	–	–	–	–	–
S=C(/N=c1\sc(Nc2ccc(Cl)cc2)nc2sc3c(c12)CCN(N1CCc2c(sc4nc(Nc5ccc(Cl)cc5)s/c(=N\C(=S)Nc5ccc(Cl)cc5)c24)C1)C3)Nc1ccc(Cl)cc1	> 100	> 100	64.5	> 100	> 100	–	> 100	64.6	31.9	–	–	–	–	–	–	–
CC(=O)OCC1OC(n2cc(I)c(=O)[nH]c2=O)C(OC(C)=O)C(OC(C)=O)C1OC(C)=O (stereo not drawn)	> 100	> 100	> 100	> 100	> 100	–	–	–	> 100	> 100	–	–	–	–	–	–
Cc1ccc(CC[P+](=O)CCc2ccc(C)nc2)cn1	> 100	> 100	–	> 100	> 100	> 100	–	> 100	> 100	> 100	–	–	–	–	–	–
